Literature values, collected in US20250289851A1, “CYCLIC PEPTIDES FOR DELIVERING THERAPEUTICS” (ENTRADA THERAPEUTICS, INC., priority 2022, published 2025).

Experiments:
[1] = hydrophobicity value, scale of Eisenberg and Weiss
[2] = hydrophobicity value, scale of Engleman et al.
[3] = hydrophobicity value, scale of Kyte and Doolittle
[4] = hydrophobicity value, scale of Hoop and Woods
[5] = hydrophobicity value, scale of Janin

Amino Acid Hydrophobicity, Eisenberg and Weiss [1]: 0.73
Amino Acid Hydrophobicity, Engleman et al. [2]: 3.1
Amino Acid Hydrophobicity, Kyte and Doolittle [3]: 4.5
Amino Acid Hydrophobicity, Hoop and Woods [4]: −1.8
Amino Acid Hydrophobicity, Janin [5]: 0.7
Compound: CC[C@H](C)[C@H](N)C(=O)O [Ile, Isoleucine]
